According to US10982192B2, “Method for the induction of arterial-type of hemogenic endothelium from hPSCS” (Wisconsin Alumni Research Foundation, priority 2017, dated 2021):

Legend:
D4 HE = assay: Single-cell deposition assay for endothelial-to-hematopoietic transition on OP9-iDLL4; type: cell-based, human; details: OP9-iDLL4 without DOX-pretreatment, DAPT 20 μM, compared to control condition
Method: One day before single-cell deposition, the OP9-iDLL4 cell line was treated with mitomycin C as described above, and passaged into 96-well plates at a density of 12,500 cells/cm2. OP9-iDLL4 used for the NOTCH activation condition was incubated with doxycycline for 24 hours after passaging into 96-well plates. On the day of single-cell sorting, OP9-iDLL4 medium was changed to αMEM with 10% FBS (GE), TPO, SCF, IL-6 (50 ng/ml), IL-3, FLT3L (10 ng/ml), and DMSO (1:500) for the control, and NOTCH activation conditions, or DAPT (20 μM) for the NOTCH inhibition condition. Day 4 differentiated human pluripotent stem cells were singularized, stained for CD309-PE and CD144-APC (Miltenyi Biotech), and single-cell sorted into individual wells of the 96-well plates using a FACS Aria II. To exclude possibility of doublets, we used a low density (less than 1 million cells/ml) cells suspension, sorting speed less than 1000 cellular events/per second and stringent gating on single cells using both FSC-A vs FSC-H and SSC-A vs SSC-H. One day after sorting, the medium was changed to fresh medium without DMSO or DAPT, and extra medium was added every 3 days. […]

D4+4 CD43+ cells = assay: T-cell differentiation of D4+4 cultures on OP9-DLL4; type: cell-based, human
Method: Total D4+4 cultures were singularized, strained, and cultured in T-cell differentiation conditions on OP9-DLL4 for 3 weeks as described^35. For D5+4 cultures, only the floating hematopoietic cells were collected and cultured in T-cell differentiation conditions. Limiting Dilution Assays were conducted with the floating cells collected from D5+4 cultures (HE:DLL4^− on OP9+DAPT, OP9+DMSO, and OP9-DLL4, and HE:DLL4^+ on OP9-DLL4). Row A of a 96-well plate received 500 cells/well, and each subsequent row afterwards had half the previous row (Row B contained 250, Row C contained 125 . . . Row H contained 3-4 cells). The wells were scored 2 weeks later by eye and flow-cytometry for CD5^+CD7^+ containing cells. Positive threshold was set at 167 CD5^+CD7^+ cells/well. Extreme limiting dilution analysis was conducted using the previously established algorithm^88

HES1 = assay: qPCR of NOTCH1 target gene HES1 in D4 HE; type: cell-based, human; details: D4 HE cultured for 12 hours (D4+0.5)
Method: (§1) Human pluripotent stem cells, H1 hESC line, DF19-9-7T fibroblast-hiPSC line, IISH2i-BM9 bone marrow-iPSC line, and IISH3i-CB6 cord blood-iPSC line, were maintained and passaged in chemically defined conditions using vitronectin and E8 medium, as previously described^85. The human PSCs were differentiated into hematoendothelial lineages using a modified protocol previously described^35. On Day −1, hPSCs were singularized and plated on collagen IV-coated plates (0.5 μg/cm^2) at a cell density of 7,500 cells/cm^2 in E8 medium supplemented with 10 uM Rock inhibitor (Y-27632, Cayman Chemicals). On Day 0, the medium was changed to IF9S medium supplemented with BMP4, FGF2 (50 ng/ml), Activin A (15 ng/ml, Peprotech), LiCl (2 mM, Sigma), and ROCK inhibitor (0.5 μM, Cayman Chemicals) and cultured in hypoxia (5% O2, 5% CO2). […] A sample of the purified cells was analyzed by flow cytometry, and experiments were continued only if the purity of the HE was over 95% CD144^+. […]
Cells were differentiated for the respective days and sorted on a FACS Aria II. RNA was collected using RNA MiniPrep Plus (Invitrogen) and quantified on a NanoDrop (GE Healthcare). […] The reactions were run on a Mastercycler RealPlex Thermal Cycler (Eppendorf) and the expression levels were calculated by minimal cycle threshold values (Ct) normalized to the reference expression of RPL13a. […]

D5 HE:DLL4- = assay: Blood production from D5 HE:DLL4- in OP9 co-culture with NOTCH inhibition; type: cell-based, human; details: DAPT 20 μM
Method: (§2) OP9, OP9-DLL4, and the inducible OP9-iDLL4 (made in-house) cell lines were maintained in αMEM with 20% FBS (GE) on gelatin-coated plates in normoxia as previously described^86. Using TrypLE (Thermo), OP9 were passaged at a 1:8 ratio every 3-4 days when they were 80% confluent. One day before co-culture with differentiated human HE cells, OP9 lines were treated with mitomycin C (1 mg/ml) for 2 hours and then plated at a density of 12,500 cells/cm^2 as previously described^87. D4 HE cells or D5 CD144^+ subsets were plated onto OP9 lines at a density between 1000 to 2000 cells/cm^2 in medium containing αMEM with 10% FBS (GE), TPO, SCF, IL-6 (50 ng/ml), IL-3, and FLT3L (10 ng/ml). Medium was changed after 24 hours, and extra medium added 2 days later. Experiments conducted with DAPT were treated with 20 μM, while corresponding control conditions had DMSO added at a 1:500 dilution.

Runx1+23 enhancer = assay: Runx1+23-eGFP reporter flow cytometry; type: cell-based, human; details: D4 HE cultured with DAPT or on DLL1-Fc
Method: Runx1+23 enhancer fragment^33 was amplified by PCR and subsequently cloned into the AAVS-SA-2A-PURO vector (gift from Gadue Lab, The Children's Hospital of Philadelphia). Human ESCs were transfected with zinc-finger nuclease vectors and later puromycin-resistant individual cells were clonally expanded and on-targeted clones were selected, as previously described^38. Southern Blot (SB) analysis was performed by DIG-labeling hybridization (Roche). Briefly, 10 μg genomic DNA was digested using a EcoRV restriction enzyme for overnight, separated on a 0.7% agarose gel for 6 hours, transferred to a nylon membrane (Amersham), and incubated with DIG-labeling probes. The external probe is a DIG-labeled 600 nucleotide fragment that binds to the EcoRV-digested fragment of the 5′ external region. The internal probe is a DIG-labeled 700 nucleotide fragment that binds to the EcoRV-digested fragment of the of the eGFP region.
Flow Cytometry was conducted using the MACSQuant 10 (Miltenyi Biotech). FACS-sorting was conducted on a FACS Aria II (BD) as previously described^26, 35, 86.

D5 HE:DLL4+ = assay: Blood production from D5 HE:DLL4+ in OP9 co-culture with NOTCH inhibition; type: cell-based, human; details: treatment from D5 to D5+2, D5+2 to D5+4, and D5 to D5+4; 20 μM
Method: as §2

D4 HE cells = assay: Annexin V flow cytometric analysis of apoptosis; type: cell-based, human; details: D4+4
[1] = tested on: cells collected from D4+4 HE cultures; assay: Hematopoietic colony forming unit assay; type: cell-based, human; details: cells from D4+4 HE cultures in methocellulose, vs control
Method: Hematopoietic colony forming unit assay was conducted in serum-containing H4436 Methocult (Stem Cell Technologies) as previously described^26, 35.

[2] = tested on: CD34+CD43-CD73- HE progenitors; details: NOTCH inhibition; cited from earlier work
D4 CD31+ HE cells = assay: CellTracer proliferation assay and EdU cell cycle analysis; type: cell-based, human
Method: D4 CD31^+ HE cells were incubated in PBS with CellTracer (1 μg/ml, Thermo) for 20 minutes at 37° C. After washing, the cells were plated on collagen IV-coated plates with either Fc-IgG or DLL1-Fc and the modified Day 4 medium, as described above, at a higher density of 30,000 to 40,000 cells/cm^2 due to toxicity from the CellTracer. Aliquots of the purified cells were analyzed by flow cytometry to determine the purity of the MACS cells and establish the Generation 0 peak for the proliferation assay. Secondary cultures were collected every day after plating for flow cytometry analysis, and calibration beads were used to generate compatible CellTracer results. After D4+4, FlowJo™ Analysis software was used to concatenate the data from each day. The average number of cell divisions was calculated based on the number of cells on each day (FIG. 1F) and applied to the proliferation platform algorithm in FlowJo™ to determine the specific generation gates. Those peaks were re-applied to individual sets of data to determine the percentage of each generation within the hematoendothelial populations. For cell cycle analysis, D4+4 cells were incubated in culture medium with EdU (10 μM, Thermo Fisher) for 2 hours and stained with CD43 and CD144 antibodies for 20 min. […]

[3] = tested on: D4 CD144+CD43-CD73- HE cells; assay: Flow cytometry of CD144/CD43 in secondary culture of D4 HE (hematopoiesis/EHT), serum- and feeder-free; type: cell-based, human
Method: Human pluripotent stem cells, H1 hESC line, DF19-9-7T fibroblast-hiPSC line, IISH2i-BM9 bone marrow-iPSC line, and IISH3i-CB6 cord blood-iPSC line, were maintained and passaged in chemically defined conditions using vitronectin and E8 medium, as previously described^85. The human PSCs were differentiated into hematoendothelial lineages using a modified protocol previously described^35. On Day −1, hPSCs were singularized and plated on collagen IV-coated plates (0.5 μg/cm^2) at a cell density of 7,500 cells/cm^2 in E8 medium supplemented with 10 uM Rock inhibitor (Y-27632, Cayman Chemicals). On Day 0, the medium was changed to IF9S medium supplemented with BMP4, FGF2 (50 ng/ml), Activin A (15 ng/ml, Peprotech), LiCl (2 mM, Sigma), and ROCK inhibitor (0.5 μM, Cayman Chemicals) and cultured in hypoxia (5% O2, 5% CO2). On day 2, the medium was changed to IF9S medium supplemented with FGF2, VEGF (50 ng/ml, Peprotech), and 2.5 μM TGFβ inhibitor (SB-431542, Cayman Chemicals). On day 4, cell cultures were singularized and stained with anti-CD31 microbeads (Miltenyi) for 15 minutes. Cells were washed and HE were purified using CD31 antibody and MACS LS columns (Miltenyi). Purified CD31^+ HE were then plated at a density of 20,000 to 30,000 cells/cm^2 on collagen IV-coated plates (1 μg/cm^2) that were either co-coated with IgG-Fc fragments or human DLL1-Fc (made in-house), in IF9S medium supplemented with FGF2, VEGF, EGF, IGF-I, IGF-II, TPO, IL-6 (50 ng/ml), SCF (20 ng/ml), IL-3, FLT3L (10 ng/ml, Peprotech), and ROCK inhibitor (5 μM, Cayman Chemicals), and where specified, DMSO (1:1000, Fisher Scientific) or DAPT (10 μM, Cayman Chemicals), and cultured in normoxia (20% O2, 5% CO2). In some experiments, HE was cultured on plates co-coated with human JAG1-Fc (R&D Systems). A sample of the purified cells was analyzed by flow cytometry, and experiments were continued only if the purity of the HE was over 95% CD144^+. On Day 4+1, the medium was replaced with fresh medium containing the same supplements without ROCK inhibitor. […]

NOTCH1 = assay: Western blot of activated cleaved NOTCH1 (NOTCH:ICD) in D4 HE; type: cell-based, human; details: D4 HE cultured for 24 h (D4+1); DAPT 10 μM or immobilized DLL1-Fc
Method: as §1, with “CO2). On day 2, the medium was changed to IF9S medium supplemented with FGF2, VEGF (50 ng/ml, Peprotech), and 2.5 μM TGFβ inhibitor (SB-431542, Cayman Chemicals). On day 4, cell cultures were singularized and stained with anti-CD31 microbeads (Miltenyi) for 15 minutes. Cells were washed and HE were purified using CD31 antibody and MACS LS columns (Miltenyi).” for “CO2).”

## C[C@H](NC(=O)Cc1cc(F)cc(F)c1)C(=O)N[C@H](C(=O)OC(C)(C)C)c1ccccc1 [DAPT]
D4 HE
  ratio of hematopoietic/endothelial colonies: markedly decreased
D4+4 CD43+ cells
  T-cell potential of HPs: no T-cell potential
HES1
  HES1 mRNA expression: decreased
D5 HE:DLL4-
  hematopoietic activity of HE:DLL4- cultures: no effect on hematopoietic activity
Runx1+23 enhancer
  Runx1+23 enhancer activity (eGFP): decreases
D5 HE:DLL4+
  hematopoietic activity of the HE:DLL4+ population: significantly inhibited hematopoietic activity
D4 HE cells
  apoptosis of blood cells post-transition: none of the conditions affected apoptosis
[1]
  total number of colonies: significantly lower
[2]
  production of CD45+ cells: reduces production of CD45^+ cells
D4 CD31+ HE cells; D4+4
  cycling CD43+ cells (EdU): no differences
D4 CD31+ HE cells; D4+4, treated through D4+4
  distribution of CD43+ cells within each generation: no significant shift
[3]; each day from D4+1 to D4+4
  CD43+ HPs: decreased CD43+ HPs
[3]; treated for 24-hours from D4 to D4+1
  CD43hi CD144- cells on D4+2 through D4+4: significant drop
[3]; treatment throughout (D4 to D4+4)
  hematopoiesis: more profoundly decreased hematopoiesis
NOTCH1
  activated cleaved form of NOTCH1: decrease
